{"source": "patent US20080145372A1", "about": "“Bioreductively-Activated Prodrugs” (ANGIOGENE, PHARMACEUTICALS LIMITED, priority 2004, published 2008)", "data": [{"assay": "Pulse radiolysis: fragmentation of radical anions", "conditions": "prodrug 40 μM, N2O-saturated 50% aqueous 2-propanol, pH 7.4-9.0", "method": "The rate of fragmentation of intermediate radical anions produced by one-electron reduction is an important determinant of bioreductive prodrug action and can be measured by pulse radiolysis. The magnitude of the rate constant of radical fragmentation indicates the ability of the prodrugs to deliver the drug under hypoxia. The radicals were generated by reduction of the parent prodrugs (40 μM) by the 2-propanol radical generated radiolytically in an N2O-saturated 50% aqueous 2-propanol buffered to pH 7.4-9.0 with potassium phosphate (4 mM). Experiments were performed with a 6 Me V linear accelerator to generate an electron pulse of around 500 ns.", "values": [{"smiles": "CC(OC(=O)Nc1ccn([C@@H]2O[C@H](CO)[C@@H](O)[C@@H]2O)c(=O)n1)c1ccc([N+](=O)[O-])s1", "note": "(stereo partly drawn) [Example 1, N^4-(1-(5-nitrothien-2-yl)ethyl)oxycarbonyl-1-β-D-arabinofuranosylcytosine]", "First-order rate constant k for the decay of radical anions produced by pulse radiolysis": "49 s⁻¹"}, {"smiles": "O=C(Nc1ccn([C@@H]2O[C@H](CO)[C@@H](O)[C@@H]2O)c(=O)n1)OCc1ccc([N+](=O)[O-])s1", "note": "[Example 2, N^4-(5-nitrothien-2-yl)methoxycarbonyl-1-β-D-arabinofuranosylcytosine]", "First-order rate constant k for the decay of radical anions produced by pulse radiolysis": "12 s⁻¹"}, {"smiles": "CC(OC(=O)Nc1ccn([C@@H]2O[C@H](CO)[C@@H](O)C2(F)F)c(=O)n1)c1ccc([N+](=O)[O-])s1", "note": "(stereo partly shown) [Example 3, N^4-(1-(5-nitrothien-2-yl)ethyl)oxycarbonyl-2′,2′-difluoro-2′-deoxycytidine]", "First-order rate constant k for the decay of radical anions produced by pulse radiolysis": "102 s⁻¹"}, {"smiles": "CC(=O)OC[C@H]1O[C@@H](n2ccc(NC(=O)OC(C)c3ccc([N+](=O)[O-])s3)nc2=O)[C@@H](OC(C)=O)[C@@H]1OC(C)=O", "note": "(stereo partly drawn) [Example 4, Tri-O-acetyl-N^4-(1-(5-nitrothien-2-yl)ethyl)oxycarbonyl-1-β-D-arabinofuranosylcytosine]", "First-order rate constant k for the decay of radical anions produced by pulse radiolysis": "245 s⁻¹"}, {"smiles": "Cn1c(COC(=O)Nc2ccn([C@@H]3O[C@H](CO)[C@@H](O)C3(F)F)c(=O)n2)cnc1[N+](=O)[O-]", "note": "[Example 5, N^4-(2-nitro-1-methylimidazol-5-yl)methoxycarbonyl-2′,2′-difluoro-2′-deoxycytidine]", "First-order rate constant k for the decay of radical anions produced by pulse radiolysis": "18 s⁻¹"}, {"smiles": "O=C(Nc1ccn([C@@H]2O[C@H](CO)[C@@H](O)C2(F)F)c(=O)n1)OCc1ccc([N+](=O)[O-])s1", "note": "[Example 6, N^4-(5-nitrothien-2-yl)methoxycarbonyl-2′,2′-difluoro-2′-deoxycytidine]", "First-order rate constant k for the decay of radical anions produced by pulse radiolysis": "20 s⁻¹"}, {"smiles": "O=C(Nc1ncnc2c1ncn2[C@@H]1O[C@H](CO)[C@@H](O)[C@@H]1O)OCc1ccc([N+](=O)[O-])s1", "note": "[Example 8, N^6-(5-nitrothien-2-yl)methoxycarbonyl-9-β-D-arabinofuranosyladenine]", "First-order rate constant k for the decay of radical anions produced by pulse radiolysis": "148 s⁻¹"}, {"smiles": "CC(=O)O[C@@H]1[C@H](OC(C)=O)[C@@H](C)O[C@H]1n1cc(F)c(NC(=O)OCc2ccc([N+](=O)O)s2)nc1=O", "note": "[Example 9, 5′-Deoxy-2′,3′-di-O-acetyl-5-fluoro-N^4-((5-nitrothien-2-yl)methoxycarbonyl)cytidine]", "First-order rate constant k for the decay of radical anions produced by pulse radiolysis": "22 s⁻¹"}, {"smiles": "O=C(Nc1nc(F)nc2c1ncn2[C@@H]1O[C@H](CO)[C@@H](O)[C@@H]1O)OCc1ccc([N+](=O)[O-])s1", "note": "[Example 10, 2-fluoro-N^6-(5-nitrothien-2-yl)methoxycarbonyl-9-O-D-arabinofuranosyladenine]", "First-order rate constant k for the decay of radical anions produced by pulse radiolysis": "144 s⁻¹"}, {"smiles": "CC(OC(=O)Nc1ccn([C@@H]2O[C@H](CO)[C@@H](O)[C@@H]2O)c(=O)n1)c1ccc([N+](=O)[O-])cc1", "note": "(stereo partly drawn) [Example 11, N^4-(1-(4-nitrophenyl)ethoxycarbonyl)-1-β-D-arabinofuranosylcytosine]", "First-order rate constant k for the decay of radical anions produced by pulse radiolysis": "0.4 s⁻¹"}, {"smiles": "O=C(Nc1ccn([C@@H]2O[C@H](CO)[C@@H](O)[C@@H]2O)c(=O)n1)OCc1ccc([N+](=O)[O-])o1", "note": "[Example 12, N^4-(5-nitrofuran-2-yl)methoxycarbonyl-1-β-D-arabinofuranosylcytosine]", "First-order rate constant k for the decay of radical anions produced by pulse radiolysis": "5.5 s⁻¹"}, {"smiles": "O=C(Nc1ccn([C@@H]2O[C@H](CO)[C@@H](O)[C@@H]2O)c(=O)n1)OCc1ccc([N+](=O)[O-])cc1", "note": "[N^4-(4-nitrophenyl)methoxycarbonyl-1-β-D-arabinofuranosylcytosine, reference compound]", "First-order rate constant k for the decay of radical anions produced by pulse radiolysis": "too small to measure"}]}, {"assay": "not given", "conditions": "not given", "units": {"melting point": "°C"}, "values": [{"smiles": "O=C(Nc1ccn([C@@H]2O[C@H](CO)[C@@H](O)C2(F)F)c(=O)n1)OCc1ccc([N+](=O)[O-])s1", "note": "[Example 6, N^4-(5-nitrothien-2-yl)methoxycarbonyl-2′,2′-difluoro-2′-deoxycytidine]", "melting point": "144 to 148"}]}]}
